Values after ≈ are worked out from the molar mass of the structure shown. Active and inactive are the calls of the source. The rule behind the calls is not given here.
Columns and labels:
Staphylococcus aureus = test: Antibacterial activity against Staphylococcus aureus CMCC(B)26003 by agar dilution method; assay type: functional
Fusarium graminearum = test: Antifungal activity against Gibberella zeae at 50 ug/ml; assay type: functional
Botrytis cinerea = test: Antifungal activity against Botrytis cinerea at 50 ug/ml; assay type: functional
Rhizoctonia solani [1] = test: Antifungal activity against Rhizoctonia solani at 50 ug/ml; assay type: functional
Alternaria solani = test: Antifungal activity against Alternaria solani at 50 ug/ml; assay type: functional
Escherichia coli = test: Antibacterial activity against Escherichia coli CMCC(B)44102 by agar dilution method; assay type: functional
Rhizoctonia solani [2] = test: Antifungal activity against Rhizoctonia solani assessed as protective effect at 400 ug/ml; assay type: functional; details: dose 400 µg/ml
Rhizoctonia solani [3] = test: Antifungal activity against Rhizoctonia solani assessed as hyphal surface secretion at 25 ug/ml by SEM analysis; assay type: functional, organism-based; details: dose 25.0 µg/ml
Rhizoctonia solani [4] = test: Antifungal activity against Rhizoctonia solani assessed as appearance of twisted hyphae at 25 ug/ml by SEM analysis; assay type: functional, organism-based; details: dose 25.0 µg/ml
Rhizoctonia solani [5] = test: Antifungal activity against Rhizoctonia solani assessed as protective effect at 200 ug/ml; assay type: functional; details: dose 200 µg/ml
Rhizoctonia solani [6] = test: Antifungal activity against Rhizoctonia solani assessed as mycelium shrinkage incubated for 36 hrs; assay type: functional, organism-based
Rhizoctonia solani [7] = test: Antifungal activity against Rhizoctonia solani assessed as appearance of rough surface at 25 ug/ml by SEM analysis; assay type: functional, organism-based; details: dose 25.0 µg/ml
Rhizoctonia solani [8] = test: Antifungal activity against Rhizoctonia solani assessed as appearance of wrinkling on mycelium surface incubated for 36 hrs; assay type: functional, organism-based
Rhizoctonia solani [9] = test: Antifungal activity against Rhizoctonia solani assessed as appearance of disordered mycelium winding incubated for 36 hrs; assay type: functional, organism-based
Rhizoctonia solani [10] = test: Antifungal activity against Rhizoctonia solani assessed as appearance of contracted surface at 25 ug/ml by SEM analysis; assay type: functional, organism-based; details: dose 25.0 µg/ml
Rhizoctonia solani [11] = test: Antifungal activity against Rhizoctonia solani assessed as appearance of shrunk hyphae at 25 ug/ml by SEM analysis; assay type: functional, organism-based; details: dose 25.0 µg/ml
Rhizoctonia solani [12] = test: Antifungal activity against Rhizoctonia solani assessed as appearance of irregular intertwining at 25 ug/ml by SEM analysis; assay type: functional, organism-based; details: dose 25.0 µg/ml
Rhizoctonia solani [13] = test: Antifungal activity against Rhizoctonia solani; assay type: functional, organism-based
Rhizoctonia solani [14] = test: Antifungal activity against Rhizoctonia solani assessed as appearance of irregular mycelium bending incubated for 36 hrs; assay type: functional, organism-based
[15] = biological target: DNA topoisomerase II (Homo sapiens) (UniProt P11388+Q02880); test: Inhibition of DNA topoisomerase II (unknown origin); assay type: protein assay

| Compound | MIC (Staphylococcus aureus) | inhibition at 50 µg/mL (Fusarium graminearum) | inhibition at 50 µg/mL (Botrytis cinerea) | inhibition at 50 µg/mL (Rhizoctonia solani [1]) | inhibition at 50 µg/mL (Alternaria solani) | MIC (Escherichia coli) | other results |
| --- | --- | --- | --- | --- | --- | --- | --- |
| Cc1ccc(C[C@@]2(CNC(=O)c3ccccn3)CCC[C@]3(C)c4ccc(C(C)C)cc4CC[C@@H]23)cc1C | > 128 µg/mL | 0% | 15.2% | 7.4% | 4.1% | 64 µg/mL (≈ 129 µM) | – |
| CC(C)c1ccc2c(c1)CC[C@H]1[C@@](CN)(Cc3ccc(C(C)(C)C)cc3)CCC[C@]21C | > 128 µg/mL | 3.6% | 32.4% | 65% | 7.9% | 16 µg/mL (≈ 38.3 µM) | – |
| CC(C)c1ccc2c(c1)CC[C@H]1[C@@](CNC(=O)c3ccccn3)(Cc3ccc(F)cc3)CCC[C@]21C | 32 µg/mL (≈ 66 µM) | 0% | 0% | 1.2% | 1.7% | 4 µg/mL (≈ 8.25 µM) | – |
| OCC1=C[C@H](N[C@H]2C[C@H](CO)[C@@H](O[C@@H]3O[C@H](CO)[C@@H](O)[C@H](O)[C@H]3O)[C@H](O)[C@H]2O)[C@H](O)[C@@H](O)[C@@H]1O [VALIDAMYCIN] | – | – | – | – | – | – | Activity (Rhizoctonia solani [2]): 83.1% |
| CC(C)c1ccc2c(c1)CC[C@H]1[C@@](CNC(=O)c3ccccn3)(Cc3ccccc3C#N)CCC[C@]21C | > 128 µg/mL | 0% | 23.2% | 29.3% | 0% | 64 µg/mL (≈ 130 µM) | – |
| CC(C)c1ccc2c(c1)CC[C@H]1[C@@](CNC(=O)c3ccccn3)(Cc3ccccc3)CCC[C@]21C | > 128 µg/mL | 3.8% | 12.4% | 1.9% | 2.5% | 32 µg/mL (≈ 68.6 µM) | – |
| CC(C)c1ccc2c(c1)CC[C@H]1[C@@](CNC(=O)c3ccccn3)(Cc3ccc(OC(F)(F)F)cc3)CCC[C@]21C | > 128 µg/mL | 1.6% | 0.9% | 26.1% | 0% | 64 µg/mL (≈ 116 µM) | – |
| COc1ccc(C[C@@]2(CN)CCC[C@]3(C)c4ccc(C(C)C)cc4CC[C@@H]23)cc1 | > 128 µg/mL | 34.8% | 85.2% | 95.6% | 22.1% | 32 µg/mL (≈ 81.7 µM) | Activity (Rhizoctonia solani [3]): Active; Activity (Rhizoctonia solani [4]): Active; Activity (Rhizoctonia solani [5]): 27.7%; Activity (Rhizoctonia solani [6]): Active; Activity (Rhizoctonia solani [7]): Active; Activity (Rhizoctonia solani [8]): Active; Activity (Rhizoctonia solani [9]): Active; Activity (Rhizoctonia solani [2]): 76.9%; Activity (Rhizoctonia solani [10]): Active; Activity (Rhizoctonia solani [11]): Active; Activity (Rhizoctonia solani [12]): Active; EC50 (Rhizoctonia solani [13]): 5.21 µg/mL (≈ 13.3 µM); Activity (Rhizoctonia solani [14]): Active |
| CC(C)c1ccc2c(c1)CC[C@H]1[C@@](CNC(=O)c3ccccn3)(Cc3ccc(Br)cc3)CCC[C@]21C | 32 µg/mL (≈ 58.7 µM) | 0% | 20.1% | 25.2% | 1.1% | 4 µg/mL (≈ 7.33 µM) | – |
| O=C(Nc1ccccc1-c1ccc(Cl)cc1)c1cccnc1Cl [BOSCALID] | – | 32% | 90.1% | 80.2% | 49.5% | – | EC50 (Rhizoctonia solani [13]): 1.57 µg/mL (≈ 4.57 µM) |
| CC(C)c1ccc2c(c1)CC[C@H]1[C@@](CNC(=O)c3ccccn3)(Cc3ccc(C(F)(F)F)cc3)CCC[C@]21C | 64 µg/mL (≈ 120 µM) | 0% | 1.1% | 16.3% | 1.7% | 64 µg/mL (≈ 120 µM) | – |
| CC(C)c1ccc2c(c1)CC[C@H]1[C@@](CN)(Cc3ccc(Cl)cc3)CCC[C@]21C | 8 µg/mL (≈ 20.2 µM) | 25.9% | 47.3% | 80.6% | 20.2% | 0.125 µg/mL (≈ 0.316 µM) | INH [15]: 0.76 ng/mL; EC50 (Rhizoctonia solani [13]): 7.86 µg/mL (≈ 19.9 µM) |
| COc1ccccc1C[C@@]1(CN)CCC[C@]2(C)c3ccc(C(C)C)cc3CC[C@@H]12 | > 128 µg/mL | 24.8% | 51.4% | 44.5% | 16.9% | 32 µg/mL (≈ 81.7 µM) | – |
| CC(C)c1ccc2c(c1)CC[C@H]1[C@@](CNC(=O)c3ccccn3)(Cc3ccc(C#N)cc3)CCC[C@]21C | > 128 µg/mL | 0% | 30.6% | 28.5% | 5.5% | 64 µg/mL (≈ 130 µM) | – |
| O=C(O)c1cn(C2CC2)c2cc(N3CCNCC3)c(F)cc2c1=O [CIPROFLOXACIN] | > 128 µg/mL | – | – | – | – | – | INH [15]: 1.11 ng/mL |
| COc1cccc(C[C@@]2(CNC(=O)c3ccccn3)CCC[C@]3(C)c4ccc(C(C)C)cc4CC[C@@H]23)c1 | 16 µg/mL (≈ 32.2 µM) | 0% | 3.7% | 5.2% | 0% | 8 µg/mL (≈ 16.1 µM) | – |
| COc1ccc(C[C@@]2(CNC(=O)c3ccccn3)CCC[C@]3(C)c4ccc(C(C)C)cc4CC[C@@H]23)cc1 | > 128 µg/mL | 4.5% | 22.2% | 48.6% | 4.9% | 64 µg/mL (≈ 129 µM) | – |
| CC(C)c1ccc2c(c1)CC[C@H]1[C@@](CNC(=O)c3ccccn3)(Cc3cccc(C(F)(F)F)c3)CCC[C@]21C | > 128 µg/mL | 0% | 0% | 8.2% | 1% | 64 µg/mL (≈ 120 µM) | – |
| COc1ccccc1C[C@@]1(CNC(=O)c2ccccn2)CCC[C@]2(C)c3ccc(C(C)C)cc3CC[C@@H]12 | > 128 µg/mL | 0% | 20.6% | 46.2% | 3% | 32 µg/mL (≈ 64.4 µM) | – |
| CN[C@H](CC(C)C)C(=O)N[C@H]1C(=O)N[C@@H](CC(N)=O)C(=O)N[C@H]2C(=O)N[C@H]3C(=O)N[C@H](C(=O)N[C@H](C(=O)O)c4cc(O)cc(O)c4-c4cc3ccc4O)[C@H](O)c3ccc(c(Cl)c3)Oc3cc2cc(c3O[C@@H]2O[C@H](CO)[C@@H](O)[C@H](O)[C@H]2O[C@H]2C[C@](C)(N)[C@H](O)[C@H](C)O2)Oc2ccc(cc2Cl)[C@H]1O [VANCOMYCIN] | – | – | – | – | – | 128 µg/mL (≈ 88.3 µM) | – |
| CC(C)c1ccc2c(c1)CC[C@H]1[C@@](CNC(=O)c3ccccn3)(Cc3cccc(C#N)c3)CCC[C@]21C | > 128 µg/mL | 4.5% | 6.3% | 5.8% | 3% | 32 µg/mL (≈ 65.1 µM) | – |
| CCOC(=O)c1ccc(C[C@@]2(CNC(=O)c3ccccn3)CCC[C@]3(C)c4ccc(C(C)C)cc4CC[C@@H]23)cc1 | > 128 µg/mL | 14.1% | 0% | 0% | 1.2% | 32 µg/mL (≈ 59.4 µM) | – |
| CC(C)c1ccc2c(c1)CC[C@H]1[C@@](CNC(=O)c3ccccn3)(Cc3ccc(N)cc3)CCC[C@]21C | 32 µg/mL (≈ 66.4 µM) | 3.5% | 5.6% | 28.5% | 4% | 32 µg/mL (≈ 66.4 µM) | – |
| CC(C)c1ccc2c(c1)CC[C@H]1[C@@](CNC(=O)c3ccccn3)(Cc3ccc(C(C)(C)C)cc3)CCC[C@]21C | > 128 µg/mL | 22.1% | 38.4% | 65.4% | 31.6% | 8 µg/mL (≈ 15.3 µM) | – |
| CC(C)c1ccc2c(c1)CC[C@H]1[C@@](CNC(=O)c3ccccn3)(Cc3ccc(Cl)cc3)CCC[C@]21C | 8 µg/mL (≈ 16 µM) | 45.7% | 51.3% | 55.3% | 35% | 32 µg/mL (≈ 63.9 µM) | – |
| CC(C)c1ccc2c(c1)CC[C@H]1[C@@](CN)(Cc3ccc(C(F)(F)F)cc3)CCC[C@]21C | > 128 µg/mL | 25.5% | 36.2% | 38.6% | 11.6% | 16 µg/mL (≈ 37.2 µM) | – |
